According to patent US20230322767A1, “ARYL SUBSTITUTED PYRROLO-PYRIDINONES AND THERAPEUTIC USES THEREOF” (Bayer Aktiengesellschaft, priority 2020, published 2023):
Read-outs that look alike come from different tables or passages of the source.

Experiments:
Format in all cases: biochemical
CSNK1A1 = CSNK1A1 (Homo sapiens (Human), UniProt P48729); test: CSNK1A1 Assay 2 (ADP-Glo, 1 μM ATP); conditions: median, read-out: CSNK1A1 Assay 2 IC50 [mol/l] (median)
In short: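 ADP-Glo luminescence, taken as ADP formed, reports activity against biotinylated phospho-peptide substrate biotin-Ahx-KRRRAL-pS-VASLPGL at 1 μM ATP.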

CSNK1D = CSNK1D (Homo sapiens (Human), UniProt P48730); test: CSNK1D Assay (ADP-Glo, 1 μM ATP); conditions: median, read-out: CSNK1D IC50 [mol/l] (median)
In short: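 Enzyme preincubated with compound 15 min at 22° C in 50 mM HEPES pH 7.5 buffer with 10 mM MgCl2, 1 mM DTT; kinase reaction run at 1 μM ATP with biotinylated peptide substrate. ADP formed was detected by ADP-Glo luminescence as the measure of activity.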

[1] = target: wild-type Epidermal Growth Factor Receptor (EGFR) (Homo sapiens (Human), UniProt P00533); test: WT-EGFR Kinase Assay (TR-FRET, 2 mM ATP)
In short: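 TR-FRET read-out of biotinylated peptide phosphorylation, taken as the 665/622 nm ratio after EDTA stop and 1 h detection at 22° C. Kinase: GST fusion of human EGFR aa R669–A1210, given a 15 min compound pre-binding step; reaction run at 2 mM ATP.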

[2] = EGFR Wildtyp 2 mM ATP IC50 [mol/l] (median), median or individual measurements

Chain of CSNK1D (P48730 whole entry): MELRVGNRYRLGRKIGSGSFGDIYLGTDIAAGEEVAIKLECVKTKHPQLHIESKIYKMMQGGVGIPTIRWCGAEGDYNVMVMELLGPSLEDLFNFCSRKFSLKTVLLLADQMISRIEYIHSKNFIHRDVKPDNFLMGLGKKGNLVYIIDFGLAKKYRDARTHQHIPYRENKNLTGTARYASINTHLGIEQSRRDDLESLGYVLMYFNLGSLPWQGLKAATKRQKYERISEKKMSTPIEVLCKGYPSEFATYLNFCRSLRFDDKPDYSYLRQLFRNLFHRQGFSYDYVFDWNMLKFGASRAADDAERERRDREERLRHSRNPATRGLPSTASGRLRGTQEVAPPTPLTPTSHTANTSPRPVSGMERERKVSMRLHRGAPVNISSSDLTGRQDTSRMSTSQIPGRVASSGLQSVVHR
Chain of CSNK1A1 (P48729 whole entry): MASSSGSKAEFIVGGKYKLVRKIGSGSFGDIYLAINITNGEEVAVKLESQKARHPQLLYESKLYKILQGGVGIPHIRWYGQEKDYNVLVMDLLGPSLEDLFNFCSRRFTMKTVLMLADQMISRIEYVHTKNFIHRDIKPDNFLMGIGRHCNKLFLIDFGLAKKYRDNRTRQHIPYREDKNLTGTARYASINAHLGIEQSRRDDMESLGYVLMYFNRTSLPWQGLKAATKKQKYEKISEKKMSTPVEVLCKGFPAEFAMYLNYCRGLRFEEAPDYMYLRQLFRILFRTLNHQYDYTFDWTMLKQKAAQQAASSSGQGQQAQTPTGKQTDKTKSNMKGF
Chain of wild-type Epidermal Growth Factor Receptor (EGFR) (P00533 669-1210): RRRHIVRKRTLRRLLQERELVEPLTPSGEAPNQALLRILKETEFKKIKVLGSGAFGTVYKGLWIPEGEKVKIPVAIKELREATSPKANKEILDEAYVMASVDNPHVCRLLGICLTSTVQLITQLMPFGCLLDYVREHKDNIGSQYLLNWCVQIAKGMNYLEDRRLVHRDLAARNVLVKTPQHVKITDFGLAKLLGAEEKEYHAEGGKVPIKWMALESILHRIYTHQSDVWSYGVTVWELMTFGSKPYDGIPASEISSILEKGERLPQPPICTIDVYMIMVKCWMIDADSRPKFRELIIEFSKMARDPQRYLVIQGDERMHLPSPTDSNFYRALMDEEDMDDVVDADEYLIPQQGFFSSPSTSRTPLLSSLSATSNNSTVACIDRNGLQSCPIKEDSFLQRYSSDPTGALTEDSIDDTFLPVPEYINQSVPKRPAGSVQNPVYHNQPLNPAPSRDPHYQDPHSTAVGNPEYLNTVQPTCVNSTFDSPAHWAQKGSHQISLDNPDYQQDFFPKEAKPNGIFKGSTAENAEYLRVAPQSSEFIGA

SMILES	IC50 (CSNK1A1) [nM]	IC50 (CSNK1D) [nM]	IC50 [1, 2] [µM]	IC50 ([1]; read-out: EGFR Wildtyp 2 mM ATP IC50 [mol/l] (median), median or individual measurements) [µM]
Cc1c(-c2ccnc(NC(=O)C(C)c3ccc(F)cc3)c2)[nH]c2ccn(C)c(=O)c12 (racemic) [Example 132, N-[4-(3,5-dimethyl-4-oxo-4,5-dihydro-1H-pyrrolo[3,2-c]pyridin-2-yl)pyridin-2-yl]-2-(4-fluorophenyl)propanamide]	6.3	11	> 20	
Cn1ccc2[nH]c(-c3ccnc(NC(=O)C(CC(F)F)c4ccc(F)cc4)c3)c(-c3ccc(Cl)s3)c2c1=O (racemic) [Example 133, N-{4-[3-(5-chloro-2-thienyl)-5-methyl-4-oxo-4,5-dihydro-1H-pyrrolo[3,2-c]pyridin-2-yl]pyridin-2-yl}-4,4-difluoro-2-(4-fluorophenyl)butanamide]	2.3	4.8	> 20	
O=C(Nc1cc(-c2[nH]c3ccn(C4CC4)c(=O)c3c2-c2ccc(F)cc2)ccn1)C(CC(F)F)c1ccc(F)cc1 (racemic) [Example 134, N-{4-[5-cyclopropyl-3-(4-fluorophenyl)-4-oxo-4,5-dihydro-1H-pyrrolo[3,2-c]pyridin-2-yl]pyridin-2-yl}-4,4-difluoro-2-(4-fluorophenyl)butanamide]	5.5	7	> 20	
O=C(Nc1cc(-c2[nH]c3ccn(C4CC4)c(=O)c3c2-c2ccccc2)ccn1)C(CC(F)F)c1ccc(F)cc1 (racemic) [Example 137, N-[4-(5-cyclopropyl-4-oxo-3-phenyl-4,5-dihydro-1H-pyrrolo[3,2-c]pyridin-2-yl)pyridin-2-yl]-4,4-difluoro-2-(4-fluorophenyl)butanamide]	2.6	3	> 20	
CN1CCc2[nH]c(-c3ccnc(NC(=O)C(CC(F)F)c4ccc(F)cc4)c3)c(-c3cscn3)c2C1=O (racemic) [Example 138, 4,4-difluoro-2-(4-fluorophenyl)-N-{4-[5-methyl-4-oxo-3-(1,3-thiazol-4-yl)-4,5,6,7-tetrahydro-1H-pyrrolo[3,2-c]pyridin-2-yl]pyridin-2-yl}butanamide]	8.9	8.8	> 20	
CN1CCc2[nH]c(-c3ccnc(NC(=O)C(CC(F)F)c4ccc(F)cc4)c3)c(-c3ccc(F)cc3)c2C1=O (racemic) [Example 139, 4,4-difluoro-2-(4-fluorophenyl)-N-{4-[3-(4-fluorophenyl)-5-methyl-4-oxo-4,5,6,7-tetrahydro-1H-pyrrolo[3,2-c]pyridin-2-yl]pyridin-2-yl}butanamide]	4.2	5.5	> 20	
CC(C(=O)Nc1cc(-c2[nH]c3ccn(C)c(=O)c3c2-c2ccc(F)nc2)ccn1)c1ccc(F)cc1 (racemic) [Example 145, 2-(4-fluorophenyl)-N-{4-[3-(6-fluoropyridin-3-yl)-5-methyl-4-oxo-4,5-dihydro-1H-pyrrolo[3,2-c]pyridin-2-yl]pyridin-2-yl}propanamide]	9.7	10	> 20	
Cn1cc(CC(F)F)c2[nH]c(-c3ccnc(NC(=O)C(CC(F)F)c4ccc(F)cc4)c3)c(-c3ccccc3)c2c1=O (racemic) [Example 147, (rac)-N-{4-[7-(2,2-difluoroethyl)-5-methyl-4-oxo-3-phenyl-4,5-dihydro-1H-pyrrolo[3,2-c]pyridin-2-yl]pyridin-2-yl}-4,4-difluoro-2-(4-fluorophenyl)butanamide]	4.3	2.9	> 20	
CN1CC(C)(C)c2[nH]c(-c3ccnc(NC(=O)C(CC(F)F)c4ccc(F)cc4)c3)c(-c3ccccc3)c2C1=O (racemic) [Example 150, (rac)-4,4-difluoro-2-(4-fluorophenyl)-N-[4-(5,7,7-trimethyl-4-oxo-3-phenyl-4,5,6,7-tetrahydro-1H-pyrrolo[3,2-c]pyridin-2-yl)pyridin-2-yl]butanamide]	4.1	3.8	> 20	
CC(C(=O)Nc1cc(-c2[nH]c3c(c2-c2ccccc2)C(=O)N(C)CC3)ccn1)c1ccncc1 (racemic) [Example 153, (Rac)-N-[4-(5-methyl-4-oxo-3-phenyl-4,5,6,7-tetrahydro-1H-pyrrolo[3,2-c]pyridin-2-yl)pyridin-2-yl]-2-(pyridin-4-yl)propanamide]	2	2.4	> 20	
O=C(Nc1cc(-c2[nH]c3c(c2-c2ccccc2)C(=O)N(C2CC2)CC3)ccn1)C(CC(F)F)c1ccc(F)cc1 (racemic) [Example 156, (2RS)—N-(4-(5-cyclopropyl-4-oxo-3-phenyl-4,5,6,7-tetrahydro-1H-pyrrolo[3,2-c]pyridin-2-yl)pyridin-2-yl)-4,4-difluoro-2-(4-fluorophenyl)butanamide]	2.3	3.1	> 20	
O=C(Nc1cc(-c2[nH]c3ccn(C4CC4)c(=O)c3c2-c2ccccn2)ccn1)C(CC(F)F)c1ccc(F)cc1 (racemic) [Example 160, (2RS)—N-{4-[5-cyclopropyl-4-oxo-3-(pyridin-2-yl)-4,5-dihydro-1H-pyrrolo[3,2-c]pyridin-2-yl]pyridin-2-yl}-4,4-difluoro-2-(4-fluorophenyl)butanamide]	8.7	10	> 20	
O=C(Nc1cc(-c2[nH]c3c(Cl)cn(C4CC4)c(=O)c3c2-c2ccc(F)cc2)ccn1)C(CC(F)F)c1ccc(F)cc1 (racemic) [Example 161, (2RS)—N-{4-[7-chloro-5-cyclopropyl-3-(4-fluorophenyl)-4-oxo-4,5-dihydro-1H-pyrrolo[3,2-c]pyridin-2-yl]pyridin-2-yl}-4,4-difluoro-2-(4-fluorophenyl)butanamide]	20	11	> 20	
Cn1cc(CC(F)(F)F)c2[nH]c(-c3ccnc(NC(=O)C(CC(F)F)c4ccc(F)cc4)c3)c(-c3ccccn3)c2c1=O (racemic) [Example 162, (2RS)-4,4-difluoro-2-(4-fluorophenyl)-N-{4-[5-methyl-4-oxo-3-(pyridin-2-yl)-7-(2,2,2-trifluoroethyl)-4,5-dihydro-1H-pyrrolo[3,2-c]pyridin-2-yl]pyridin-2-yl}butanamide]	14	12	> 20	
CN1CCc2[nH]c(-c3ccnc(NC(=O)C(CC(F)F)c4ccc(F)cc4)c3)c(-c3ccc(F)cc3F)c2C1=O (single isomer, unassigned) [Example 67, N-{4-[3-(2,4-difluorophenyl)-5-methyl-4-oxo-4,5,6,7-tetrahydro-1H-pyrrolo[3,2-c]pyridin-2-yl]pyridin-2-yl}-4,4-difluoro-2-(4-fluorophenyl)butanamide]	16	8.6	> 20	
CN1CCc2[nH]c(-c3ccnc(NC(=O)C(CC(F)F)c4ccc(F)cc4)c3)c(-c3ccc(F)cc3F)c2C1=O (single isomer, unassigned) [Example 68, N-{4-[3-(2,4-difluorophenyl)-5-methyl-4-oxo-4,5,6,7-tetrahydro-1H-pyrrolo[3,2-c]pyridin-2-yl]pyridin-2-yl}-4,4-difluoro-2-(4-fluorophenyl)butanamide]	4.1	5.6		> 20
